# Experimental data published in US20240197702A1, “ANTISEPTIC-ANTIBIOTIC GUMBOS EFFECTIVE AGAINST GRAM-NEGATIVE PATHOGENS” (priority 2020, published 2024).
# Where a name gives a salt, the structure may show the parent alone.
# Assays:
# [1] = test system: N. gonorrhoeae ATCC 49226; experiment: MIC by micro-broth dilution against N. gonorrhoeae ATCC 49226; assay type: cell-based, Neisseria gonorrhoeae; conditions: Neisseria gonorrhoeae, ATCC49226; ATCC 49226, micro-broth dilution, 20-24 hours
# Procedure: (§1) Minimum Inhibitory Concentrations of GUMBOS against N. gonorrhoeae: Clinical isolates of N. gonorrhoeae and N. gonorrhoeae ATCC 49226 were obtained from Louisiana State University Health Sciences Center New Orleans HIV Outpatient Clinic. Minimum inhibitory concentrations (MICs) of GUMBOS, constituent parent drugs, azithromycin, and unreacted mixtures were determined using micro-broth dilution in 96-well plates. […] Stock solutions were diluted to a known working concentration and 100 μL were added to the first row of the plate. For susceptibility testing of N. gonorrhoeae, media was prepared according to methods reported by Wade and […]. Euro. Microbiol. Soc. Microbiol. […] This liquid medium allowed dense growth of N. gonorrhoeae for use in broth dilution tests. Protein-free liquid media (100 μL) were added to each well and two-fold dilutions were performed. The antibiotic containing wells were inoculated with an equal volume of bacterial inoculum matching a 0.5 McFarland standard. […] The lowest concentration of antibiotic that prevents growth is the MIC.
# [2] = test system: N. gonorrhoeae ATCC 49226; experiment: Kirby-Bauer disc diffusion against N. gonorrhoeae ATCC 49226; assay type: cell-based, Neisseria gonorrhoeae; conditions: for Zone size, mm (±SD): ATCC 49226, disc diffusion, 20-24 h
# Procedure: (§2) Antimicrobial susceptibility testing: Kirby-Bauer disc diffusion susceptibility tests were used to determine zones of inhibition (ZOIs) for N. gonorrhoeae (ATCC 49226) and three clinical isolates obtained from Louisiana State University Health Sciences Center New Orleans HIV Outpatient Clinic. Kirby-Bauer disc diffusion is one of the CDC's preferred methods of testing the susceptibility of N. gonorrhoeae. Testing was performed according to CLSI recommended procedures. In this susceptibility test, 6 mm diameter blank paper discs were impregnated with known quantities of antimicrobial drug followed by evaporation of solvent; however, ceftriaxone, azithromycin and doxycycline antimicrobial susceptibility discs were purchased from Thermo Fisher Scientific. Impregnated discs were placed onto prepared nutrient agar plates that were inoculated with N. gonorrhoeae to give a confluent lawn of growth. Suspensions of these various strains were prepared in accordance with a 1.0 McFarland standard. Inoculated agar plates were incubated for 20-24 h at 37° C. in a 5% CO2 atmosphere.
# (§3) Blank discs were loaded with 50 nmol of GUMBOS, respective constituent compounds and equivalent stoichiometric unreacted mixtures of octenidine and carbenicillin that are equimolar to the purchased ceftriaxone discs (Oxoid™, Thermo Fisher). After 20-24 h incubation, diameters of ZOIs were measured using a ruler. […] Antibacterial activity was improved for octenidine when chloride ions were exchanged for the antibiotic. […] This effect was not seen, however, for an unreacted mixture of the two drugs for either N. gonorrhoeae (ATCC 49226) or clinical isolates. The ZOIs of octenidine/carbenicillin were also larger than or equal to azithromycin and doxycycline ZOIs for N. gonorrhoeae (ATCC 49226). […] This is significant as resistance rates for azithromycin have increased worldwide. Among 57 countries reporting on azithromycin susceptibility, 28 (49%) reported>5% resistance. […] Ceftriaxone produced large ZOIs as the clinical population still remains susceptible to it in the USA (only 0.2% of isolates had elevated resistance to ceftriaxone in 2017).
# HeLa cells = experiment: MTT cytotoxicity assay of octenidine/carbenicillin GUMBOS; assay type: cell-based; conditions: HeLa; for Relative toxicity to cervical cells (in words): after 15 min of incubation
# Procedure: (§4) Cytotoxicity assay: To determine cell viability, a colorimetric MTT dye assay (Promega Corp., Madison, WI, USA) was used, employing the manufacturer's instructions, as an indicator of cytotoxicity of GUMBOS towards healthy (HeLa) cells. Hela cells (ATCC CCL-2) grown in DMEM-reduced serum supplemented with 10% FBS were plated at a density of 1% 10^5 cells/mL (10^4 cells/well) in 96-well plates. Concentrations of therapeutic agents up to 500 μM (1% MeOH or DMSO) were doubly diluted in cell culture media and transferred to seeded cells. Cells were incubated for 15 min and 60 min at 37° C. in a 5% CO2 atmosphere. Cells treated with medium alone served as a negative control. At the end of the incubation period, 15 μL of MTT was added to each well and incubation continued for another hour. Absorbance was measured at 570 nm in a microplate spectrophotometer. All experiments were performed in quadruplicate. Cell viability as a percentage was determined as the ratio between treated cells and untreated (control) cells (taken as 100%).
# [3] = as above; assay type: cell-based; conditions: human
# Procedure: as §4
# [4] = test system: N. gonorrhoeae clinical isolates; experiment: Kirby-Bauer disc diffusion against N. gonorrhoeae clinical isolates; assay type: cell-based, Neisseria gonorrhoeae; conditions: three clinical isolates, 20-24 h
# Procedure: as §2, §3
# [5] = test system: clinical isolates of N. gonorrhoeae; experiment: MIC by micro-broth dilution against N. gonorrhoeae clinical isolates; assay type: cell-based, Neisseria gonorrhoeae; conditions: Neisseria gonorrhoeae
# Procedure: as §1
# [6] = MTT cytotoxicity assay of ceftriaxone-based GUMBOS; assay type: cell-based; conditions: human, HeLa cells, read-out: Acute cytotoxicity (IC50)
# Procedure: Cytotoxicity Assay of GUMBOS: Cytotoxicity of GUMBOS, unreacted mixtures, and antiseptics towards healthy cells were evaluated using the MTT assay, a colorimetric dye assay, according to manufacturer's instructions. […] Stock solutions of antimicrobial agents in cell medium (1% MeOH) were diluted to a known working concentration, doubly diluted, and transferred to seeded cells. […] Cells treated with only DMEM were used as a negative control. After incubation, 15 μL of MTT were added to each well and cells were further incubated for an hour. Sodium dodecyl sulfate dimethylformamide solution was added after this additional incubation time in order to dissolve the purple formazan crystals. Cell viability was quantified at 570 nm using a microplate spectrophotometer (Eppendorf PlateReader AF2200, Hauppauge, NY). Cell viability as a percentage was determined as the ratio between treated cells and untreated (control) cells taken as 100%.
# [7] = Parallel Artificial Membrane Permeability Assay (PAMPA); assay type: in vitro ADME
# Procedure: Predictive intestinal permeability: PAMPA was employed as an in vitro model of passive, transcellular permeation. In this technique, a 96-well microtiter plate is used as a donor plate and a membrane/acceptor compartment coated with structured tri-layers of phospholipids is placed on top; this configuration is referred to as ‘sandwiched’. Known concentrations of octenidine/carbenicillin (100 μM in 1×PBS, 0.25% DMSO) were added to the donor plate while only buffer was placed in the acceptor plate. The assay was incubated for 5 h at room temperature and the acceptor plate was measured using a UV/Vis spectroscopy plate reader (Eppendorf PlateReader AF2200). Permeability coefficients (Pe) were calculated based on initial concentration in donor well (C0), concentration in donor well at 5 h (CD), concentration in acceptor well at 5 h (CA), volumes of donor (VD) and acceptor wells (VA), well filter area (A, 0.3 cm^2) and incubation time (t, 18000 s), as calculated using the relationship in Equation 1.
# [8] = according to Hansch et al (1995); cited from earlier work
Compound,MIC [1],"Zone size, mm (±SD) [2]",Relative toxicity to cervical cells (in words) (HeLa cells),IC50 at 15 min [3],IC50 at 60 min [3],"Zone size, mm (±SD) [4]",MIC [5],IC50 at 15 min ([6]; 15 min),IC50 at 60 min ([6]; 60 min),Permeability class [7],"Mean effective Pe (permeability coefficient) ([7]; 100 μM in 1×PBS, 0.25% DMSO, 5 h, room temperature)","Combination effect on antibacterial activity ([2]; N. gonorrhoeae (ATCC 49226) and clinical isolates, disc diffusion)",Antibacterial activity relative to azithromycin ([2]; disc diffusion ZOIs),Cytotoxicity towards cervical cells (in words) (HeLa cells),Log P [8]
"CCCCCCCCN=c1ccn(CCCCCCCCCCn2ccc(=NCCCCCCCC)cc2)cc1 [Octenidine dihydrochloride, octenidine dihydrochloride]",3.1 µM,9 ± 1 mm,most toxic,37.4 ± 2.8 µg/mL,16.1 ± 0.7 µg/mL,9 ± 0.3 mm,4.7 ± 1.8 µM,55 ± 1.29 µM,25.9 ± 1.17 µM,–,–,–,–,–,–
"CC1(C)S[C@@H]2[C@H](NC(=O)C(C(=O)[O-])c3ccccc3)C(=O)N2[C@H]1C(=O)[O-].CCCCCCCCNc1cc[n+](CCCCCCCCCC[n+]2ccc(NCCCCCCCC)cc2)cc1 [[OCT][CAR], octenidine/carbenicillin]",–,40 ± 0.6 mm,"lower toxicity than the stoichiometric, unreacted mixture",–,–,37 ± 4 mm,–,–,–,high permeability (Pe values that are greater than 1.5% 10 cm/s are defined as high permeability),3.78×10^−6 (±0.85) cm/s,additive effect,bioequivalent to azithromycin,non-toxic towards cervical cells,–
[H]/N=C(\N/C(=N/[H])NCCCCCCNC(=N)NC(=N)Nc1ccc(Cl)cc1)Nc1ccc(Cl)cc1 [chlorhexidine],–,–,–,–,–,–,–,–,–,–,–,–,–,–,0.08
